# Measurements from paper PMC7367283, “A PIP2 substitute mediates voltage sensor-pore coupling in KCNQ activation” (Communications Biology, 2020).
# “And” between values parts separate entries of the source, which are not always exact repeats. Identical values can stand only once.
# Target: T1, IKs current (Chromanol 293B sensitive current) (Cavia porcellus, UniProt O70344)
# T1 construct: Single ventricular myocytes were acutely enzymatically isolated from guinea pig heart; endogenous in cells; host or cells: freshly isolated guinea pig ventricular myocytes
# T1 sequence (O70344 1-671): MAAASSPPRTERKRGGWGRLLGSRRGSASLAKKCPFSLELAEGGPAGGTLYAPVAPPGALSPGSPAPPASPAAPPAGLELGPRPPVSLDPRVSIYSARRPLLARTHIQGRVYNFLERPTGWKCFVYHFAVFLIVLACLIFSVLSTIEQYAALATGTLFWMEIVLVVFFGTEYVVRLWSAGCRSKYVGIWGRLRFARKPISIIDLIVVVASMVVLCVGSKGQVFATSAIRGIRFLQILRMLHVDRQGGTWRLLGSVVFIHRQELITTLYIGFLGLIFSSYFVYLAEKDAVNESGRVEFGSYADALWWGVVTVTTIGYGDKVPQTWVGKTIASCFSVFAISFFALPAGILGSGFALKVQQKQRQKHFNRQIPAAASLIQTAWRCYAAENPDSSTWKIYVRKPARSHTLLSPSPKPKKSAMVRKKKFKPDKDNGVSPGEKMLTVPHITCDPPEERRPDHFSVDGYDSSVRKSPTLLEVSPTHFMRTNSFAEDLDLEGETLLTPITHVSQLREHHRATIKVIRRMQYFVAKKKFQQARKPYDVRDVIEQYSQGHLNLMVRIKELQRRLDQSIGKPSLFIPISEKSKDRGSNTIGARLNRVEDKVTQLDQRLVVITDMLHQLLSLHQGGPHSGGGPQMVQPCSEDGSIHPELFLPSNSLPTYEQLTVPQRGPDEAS
# Experiment: IKs measurements in isolated ventricular cells (whole-cell patch clamp);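 for IKs current against voltage, source data Fig. 7d: tail currents measured at the -20 mV return potential after each test voltage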
# Type: cell-based, guinea pig
# Parameters: key to IKs current against time, source data Fig. 7b: IKs current normalized to cell capacitance (current density)
# Settings: for IKs current against voltage, source data Fig. 7d / IKs current against time, source data Fig. 7b: individual cells
# Description: The KCNQ1 and KCNE1 complex forms the cardiac IKs channel, which is important in terminating cardiac action potentials and regulating heart rate[1],[2],[13]. We tested if CP1 modulates the IKs channel in cardiac myocytes. Similar to the results from KCNQ1 + KCNE1 expressed in Xenopus oocytes, in guinea pig ventricular myocyte CP1 enhanced IKs current (Chromanol 293B sensitive current) amplitude (Fig. 7a–c), shifted the G–V relation to more negative voltages (Fig. 7d, e), and slowed the kinetics of deactivation (Fig. 7a).
# Fig. 7 Effects of CP1 on IKs and action potentials in cardiomyocytes. a IKs currents in guinea pig ventricular myocytes in the absence and presence of 30 µM CP1 in the whole-cell patch-clamp configuration. Holding potential: −40 mV; testing potentials: −20 to +60 mV with 10-mV increment; returning potential: −20 mV. […] Guinea pig ventricular myocytes were first perfused with 10 µM CP1 and 10 µM chromanol. After APD reached steady state, 10 µM CP1 was constitutively perfused alone. Last, CP1 was washed out for near-full reversal of APD shortening. g Effects of 0.2 µM CP1 on LQT action potentials. To mimic the LQT, 100 µM moxifloxacin was applied 2 h before the treatment of CP1. h Change of action potential duration after application of different [CP1]s (n = 5–7). Tukey–Kramer ANOVA test was used to compare control cells in different CP1 concentration, # is significant at P < 0.05. Unpaired two-tailed Student t tests were used to compare control and moxifloxacin cells at different CP1 concentration: * is significant at P < 0.05.
# The use of guinea pigs was approved by the Stony Brook University Institutional Animal Care and Use Committee. Single ventricular myocytes were acutely enzymatically isolated from guinea pig heart as previously described. Guinea pigs, weighing 300–500 g, were sacrificed by peritoneal injection of sodium pentobarbitone (1 ml, 390 mg/ml). The isolated cells were stored in KB solution containing (in mM) 83 KCl, 30 K2HPO4, 5 MgSO4, 5 Na pyruvate, 5 β-OH-butyric acid, 20 creatine, 20 taurine, 10 glucose, and 0.5 EGTA, pH 7.2.
# An Axopatch 1D amplifier (Axon Instruments, Inc.) and the whole-cell patch-clamp technique were used to measure the IKs current. The patch pipette solution contained (in mM) 140 KMeSO3, 20 HEPES, 2 KCl, 5 EGTA, and 5 MgATP, pH 7.4. The external Tyrode contains (in mM) 137.7 NaCl, 2.3 NaOH, 8 KCl, 1 MaCl2, 5 HEPES, 1 CdCl2, and 10 Glucose, pH 7.4. The cells were held at −40 mV and stepped to −20 mV, then to +60 mV with an increment of 10 mV, to measure the membrane current in the absence and the presence of chromanol 293B (10 μM). The chromanol 293B sensitive current was defined as the IKs current normalized to its cell capacitance. These experimental protocols and conditions eliminate most of the other membrane currents, such as IP, INa, ICa, and INa/Ca, except IK, so that we could obtain better experiment resolution.
# Electrophysiology data were processed with IGOR (Wavemetrics, Lake Oswego, OR), Clampfit (Molecular Devices, Sunnyvale, CA), and SigmaPlot (SPSS, Inc., San Jose, CA). Normalized tail currents were plotted versus prepulse voltage and fitted with the Boltzmann function G = G0 + 1/(1 + exp(V − V1/2)/S), where G0 is the minimum conductance, V1/2 is the half-maximal voltage of activation, and S is the slope factor. Dose–response curves in Fig. 3 were fitted with the Hill equation, E = […], where EC50 is the drug concentration producing the half-maximum response and P is the Hill coefficient. In Fig. 7c, e, the EC50 values were obtained by fitting the data to IKs = IMin + (IMax − IMin) ([CP1]/([CP1] + EC50)) and V1/2 = V1/2 min + (V1/2Max − V1/2 min) ([CP1]/([CP1] + EC50)). The deactivation time course was fitted with single-exponential function. All data are expressed as mean ± SEM (n ≥ 3 or otherwise indicated). […]
compound,measurement,setting,value
"O=S(=O)([O-])Oc1c(-c2sc3c(ccc4cccc(Cl)c43)c2OS(=O)(=O)[O-])[nH]c2ccc(Br)cc12.[Na+].[Na+] [CP1, DISODIUM 5-BROMO-2-[9-CHLORO-3-(SULFONATOOXY) NAPHTHO [1,2-B] THIEN-2-YL]-1H-INDOL-3-YL SULFATE]","IKs current against voltage, source data Fig. 7d","0.2 µM CP1, V 0 mV",0.1478 and -0.1008 and 0.4867 and 0.5994 and 0.4202 and 0.2428
same,"IKs current against voltage, source data Fig. 7d","0.2 µM CP1, V 10 mV",0.1364 and -8.00E-03 and 0.5359 and 0.687 and 0.4359 and 0.4419
same,"IKs current against voltage, source data Fig. 7d","0.2 µM CP1, V 20 mV",0.5204 and 0.1788 and 0.7643 (2×) and 0.8582 and 0.5444
same,"IKs current against voltage, source data Fig. 7d","0.2 µM CP1, V 30 mV",0.487 and 0.358 and 1.0844 and 1.2573 and 1.0686 and 0.7892
same,"IKs current against voltage, source data Fig. 7d","0.2 µM CP1, V 40 mV",1.432 and 0.5726 and 1.6914 and 1.171 and 1.2536 and 1.1694
same,"IKs current against voltage, source data Fig. 7d","0.2 µM CP1, V 50 mV",1.7002 and 1.1486 and 1.9537 (2×) and 1.6685 and 1.6372
same,"IKs current against voltage, source data Fig. 7d","0.2 µM CP1, V 60 mV",2.1519 and 1.35 and 2.301 (2×) and 1.8192 and 1.8132
same,"IKs current against voltage, source data Fig. 7d","0.2 µM CP1, V -10 mV",0.058 and -0.1764 and 0.4431 and 0.2854 and 0.2431 and 0.2625
same,"IKs current against voltage, source data Fig. 7d","0.2 µM CP1, V -20 mV",-0.0553 and -0.0272 and 0.3362 and 0.2344 and 0.1098 and 0.1296
same,"IKs current against time, source data Fig. 7b","0.2 µM CP1, time 0.5 s",-0.15 and 2.22E-03 and 0.4227 and 0.5059 and 0.5369 and 0.8337
same,"IKs current against time, source data Fig. 7b","0.2 µM CP1, time 1.5 s",1.1736 and 1.2252 and 1.6869 and 1.7762 and 1.8153 and 1.921
same,"IKs current against time, source data Fig. 7b","0.2 µM CP1, time 2.5 s",2.3476 and 2.2614 and 2.5619 and 2.5792 and 2.5781 and 2.9902
same,"IKs current against time, source data Fig. 7b","0.2 µM CP1, time 3.5 s",4.1533 and 3.1046 and 3.3699 and 3.1301 and 3.5796 and 4.2972
same,"IKs current against time, source data Fig. 7b","0.2 µM CP1, time 4.5 s",4.9536 and 3.6388 and 3.9362 and 3.649 and 4.0225 and 4.5344
same,"IKs current against voltage, source data Fig. 7d","6 µM CP1, V 0 mV",0.1828 and 0.4288 and 0.6932 and 0.8299 and 0.4703 and 1.0496
same,"IKs current against voltage, source data Fig. 7d","6 µM CP1, V 10 mV",0.4205 and 0.6933 and 0.9149 and 1.2568 and 0.6403 and 1.5345
same,"IKs current against voltage, source data Fig. 7d","6 µM CP1, V 20 mV",0.8957 and 1.1412 and 1.496 and 1.8852 and 1.1797 and 2.1199
same,"IKs current against voltage, source data Fig. 7d","6 µM CP1, V 30 mV",2.1345 and 1.6765 and 2.1151 and 2.7982 and 1.9302 and 2.5318
same,"IKs current against voltage, source data Fig. 7d","6 µM CP1, V 40 mV",3.0845 and 2.1666 and 2.3348 and 3.4682 and 2.4976 and 3.0115
same,"IKs current against voltage, source data Fig. 7d","6 µM CP1, V 50 mV",3.95 and 2.5666 and 2.4371 and 4.0362 and 3.2962 and 3.3006
same,"IKs current against voltage, source data Fig. 7d","6 µM CP1, V 60 mV",4.0182 and 2.7319 and 3.0293 and 4.3101 and 3.6782 and 3.5497
same,"IKs current against voltage, source data Fig. 7d","6 µM CP1, V -10 mV",0.0746 and 0.3017 and 0.5691 and 0.6051
same,"IKs current against time, source data Fig. 7b","6 µM CP1, time 0.5 s",2.2824 and 1.9027 and 1.3849 and 1.6373 and 2.0899 and 2.4967
same,"IKs current against time, source data Fig. 7b","6 µM CP1, time 1.5 s",5.0013 and 4.6878 and 3.7768 and 4.1793 and 4.2368 and 4.8342
same,"IKs current against time, source data Fig. 7b","6 µM CP1, time 2.5 s",7.088 and 6.1654 and 5.3805 and 5.9272 and 5.6946 and 5.9483
same,"IKs current against time, source data Fig. 7b","6 µM CP1, time 3.5 s",7.9334 and 7.0333 and 6.1833 and 7.248 and 6.5654 and 6.4263
same,"IKs current against time, source data Fig. 7b","6 µM CP1, time 4.5 s",8.5672 and 7.9674 and 7.2346 and 7.483 and 7.0133 and 6.9913
same,"IKs current against time, source data Fig. 7b","30 µM CP1, time 0.5 s",7.2666 and 7.1831 and 9.1229 and 4.6448 and 5.4151 and 6.3301 and 8.2811
same,"IKs current against time, source data Fig. 7b","30 µM CP1, time 1.5 s",8.5502 and 9.0214 and 10.3674 and 6.9314 and 7.3351 and 7.6047 and 9.524
same,"IKs current against time, source data Fig. 7b","30 µM CP1, time 2.5 s",9.051 and 9.8065 and 11.122 and 8.4037 and 8.6405 and 8.1616 and 9.9386
same,"IKs current against time, source data Fig. 7b","30 µM CP1, time 3.5 s",9.3536 and 10.9247 and 11.9708 and 9.4071 and 9.5173 and 8.9351 and 10.1733
same,"IKs current against time, source data Fig. 7b","30 µM CP1, time 4.5 s",10.006 and 11.718 and 12.1269 and 10.5686 and 10.3666 and 9.5544 and 10.5156
same,EC50,"at +60 mV, read-out: EC50 of IKs current amplitude",7.54 µM
